According to ChEMBL document CHEMBL1151294, “Evaluation of limonoids against the murine P388 lymphocytic leukemia cell line” (J Nat Prod, 1983):
Active and inactive are the calls of the source. No cut-off for these calls is given here.

Assays:
Type in all cases: functional, organism-based
P388 [1] = experiment: In vivo antitumor activity against mouse P388 cells at 3.7 to 7.5 mg
P388 [2] = experiment: In vivo antitumor activity against mouse P388 cells at 0.5 to 8 mg
P388 [3] = experiment: In vivo antitumor activity against mouse P388 cells at 0.5 to 4 mg
P388 [4] = experiment: In vivo antitumor activity against mouse P388 cells at 0.03 to 2 mg
P388 [5] = experiment: In vivo antitumor activity against mouse P388 cells at 0.25 to 2 mg
P388 [6] = experiment: In vivo antitumor activity against mouse P388 cells at 2.5 to 40 mg
P388 [7] = experiment: In vivo antitumor activity against mouse P388 cells at 1.25 to 10 mg
P388 [8] = experiment: In vivo antitumor activity against mouse P388 cells at 2 to 200 mg
P388 [9] = experiment: In vivo antitumor activity against mouse P388 cells at 0.75 to 6 mg
P388 [10] = experiment: In vivo antitumor activity against mouse P388 cells at 1.5 to 24 mg
P388 [11] = experiment: In vivo antitumor activity against mouse P388 cells at 1.5 to 12 mg
P388 [12] = experiment: In vivo antitumor activity against mouse P388 cells at 5 to 20 mg
P388 [13] = experiment: In vivo antitumor activity against mouse P388 cells at 1.25 to 2.5 mg
P388 [14] = experiment: In vivo antitumor activity against mouse P388 cells at 0.37 to 6 mg
P388 [15] = experiment: In vivo antitumor activity against mouse P388 cells at 0.75 to 12 mg
P388 [16] = experiment: In vivo antitumor activity against mouse P388 cells at 3 to 24 mg
P388 [17] = experiment: In vivo antitumor activity against mouse P388 cells at 0.01 to 2.4 mg

Compound: C=C1[C@@H]([C@@]2(C)[C@@H](OC(C)=O)CC(=O)O[C@](C)(COC(C)=O)[C@@H]2C(=O)OC)[C@@H](OC=O)[C@H](OC(=O)[C@H](O)[C@H](C)CC)[C@@]2(C)[C@H](c3ccoc3)CC(=O)[C@]12O
- Activity (P388 [1]): inactive

Compound: CC1(C)C(=O)CC[C@]2(C)[C@H]3CC[C@@]4(C)[C@H](c5ccoc5)OC(=O)[C@H]5O[C@]54[C@]3(C)C(=O)C[C@@H]12
- Activity (P388 [2]): inactive

Compound: CC1(C)O[C@H]2CC(=O)OC[C@@]23[C@H]1CC(=O)[C@@]1(C)C2=CC(=O)O[C@H](c4ccoc4)[C@]2(C)CC[C@@H]13
- Activity (P388 [3]): inactive

Compound: C[C@H]1CC[C@@]23COC(=O)C2=CCC[C@@H]3[C@@]12C[C@H](c1ccoc1)OC2=O
- Activity (P388 [4]): inactive

Compound: CC(=O)O[C@@H]1C[C@H](O)[C@@]23CO[C@H](O)[C@]1(C)[C@@H]2C[C@@H](O)[C@]1(C)[C@@H]3C(=O)C[C@@]2(C)[C@H](c3ccoc3)C[C@H]3O[C@]312
- Activity (P388 [5]): inactive

Compound: CC(=O)O[C@@H]1C[C@H]2C(C)(C)C(=O)C=C[C@]2(C)[C@H]2CC[C@]3(C)C(=CC(=O)O[C@H]3c3ccoc3)[C@@]21C
- Activity (P388 [6]): inactive

Compound: CC1(C)OC(=O)C=C[C@]2(C)[C@H]3CC[C@]4(C)[C@H](c5ccoc5)C[C@@H]5O[C@@]54[C@]3(C)C(=O)[C@H](O)[C@@H]12
- Activity (P388 [7]): inactive

Compound: C=C1[C@@H]2CC[C@@]3(C)[C@H](c4ccoc4)OC(=O)C[C@]13O[C@H]1CC(=O)C(C)(C)[C@H](CC(=O)OC)[C@]12C
- Activity (P388 [8]): inactive

Compound: CC(=O)O[C@H]1[C@@H](OC(C)=O)[C@]2(C)[C@H](CC[C@]3(C)[C@H](c4ccoc4)C[C@@H]4O[C@]423)[C@@]2(C)C=CC(=O)OC(C)(C)[C@H]12
- Activity (P388 [7]): inactive

Compound: CC(=O)OC1=C2C(C)(C)O[C@H]3CC(=O)OC[C@@]23[C@H]2CC[C@@]3(C)[C@@H](c4ccoc4)OC(=O)[C@H]4O[C@]43[C@]2(C)C1=O
- Activity (P388 [3]): inactive

Compound: CC1(C)O[C@@H](CC(=O)O)[C@]23CO[C@H](C(=O)[C@]4(C)[C@@H]2CC[C@@]2(C)[C@@H](c5ccoc5)OC(=O)[C@H]5O[C@]524)[C@H]13
- Activity (P388 [9]): inactive

Compound: CC1=C2CC(=O)O[C@H](c3ccoc3)[C@]2(C)CC[C@@H]1[C@@]12COC(=O)C[C@@H]1OC(C)(C)C2CC(=O)O (stereo partly drawn)
- Activity (P388 [3]): inactive

Compound: CC1(C)C(=O)C=C[C@]2(C)[C@H]3CC[C@@]4(C)[C@H](c5ccoc5)OC(=O)[C@H]5O[C@]54[C@]3(C)C(=O)C[C@@H]12
- Activity (P388 [10]): inactive

Compound: CC1(C)C(=O)C=C[C@]2(C)[C@H]3CC[C@@]4(C)[C@H](c5ccoc5)OC(=O)[C@H]5O[C@]54[C@]3(C)[C@H](O)C[C@@H]12
- Activity (P388 [10]): inactive

Compound: CC1(C)O[C@H]1[C@H]1C[C@@H]([C@@H]2CC[C@]3(C)C4=CC[C@H]5C(C)(C)C(=O)CC[C@]5(C)[C@H]4CC[C@@]23C)[C@H](O)O1
- Activity (P388 [11]): inactive

Compound: CC1(C)O[C@@H](CC(=O)O)[C@]23CO[C@H](C(=O)[C@]4(C)[C@@H]2CC[C@@]2(C)[C@H]([C@H]5CCOC5)OC(=O)[C@H]5O[C@]524)[C@H]13
- Activity (P388 [3]): inactive

Compound: C[C@]12C[C@H](c3ccoc3)OC(=O)[C@@H]1CC[C@@]13COC(=O)C1=CCC[C@@H]32
- Activity (P388 [5]): inactive

Compound: CC(=O)O[C@@H]1C[C@H](O)[C@@]23CO[C@H](O)[C@]1(C)[C@@H]2C[C@@H](O)[C@]1(C)[C@@H]3C(=O)[C@H](O)[C@@]2(C)[C@H](c3ccoc3)C[C@H]3O[C@@]321
- Activity (P388 [12]): Toxic
- Activity (P388 [13]): inactive

Compound: COC(=O)[C@@]1(C)CCC[C@]2(C)C3=C(CC[C@@H]12)C(=O)c1occc1CC3
- Activity (P388 [14]): inactive

Compound: CC(=O)OC1[C@@H]2[C@@]3(C)C=C[C@@H](O)[C@](C)(OC(C)=O)[C@@H]3C[C@@H](OC(C)=O)[C@@]2(C)[C@]23O[C@@H]2CC(c2ccoc2)[C@]3(C)[C@H]1OC(=O)C(C)C (single isomer, unassigned)
- Activity (P388 [15]): inactive

Compound: CC1(C)O[C@H]2CC(=O)OC[C@]23[C@H]2CC[C@@]4(C)[C@@H](c5ccoc5)OC(=O)[C@H]5O[C@]54[C@]2(C)[C@@H](OC(=O)CCl)C[C@@H]13
- Activity (P388 [2]): inactive

Compound: CC(C)(O)[C@@H]1CC(=O)[C@]2(C)[C@H](CC[C@@]3(C)[C@@H](c4ccoc4)OC(=O)[C@H]4O[C@]432)[C@@]1(C)/C=C\C(=O)O
- Activity (P388 [9]): inactive

Compound: CC(=O)O[C@@H]1C[C@@]2(C)[C@H](c3ccoc3)C[C@H]3O[C@]32[C@]2(C)C(=O)C(O)=C3C(C)(C)C(=O)C=C[C@]3(C)C12 (stereo partly drawn)
- Activity (P388 [16]): inactive

Compound: CC(=O)O[C@@H]1C[C@H](O)[C@@]23CO[C@H](O)[C@]1(C)[C@@H]2C[C@@H](O)[C@@]1(C)[C@@H]2C(=O)C[C@@H](c4ccoc4)[C@]2(C)CC(=O)[C@@H]13
- Activity (P388 [17]): inactive

Compound: CC1(C)O[C@H]2CC(=O)OC[C@]23[C@H]2CC[C@@]4(C)[C@@H](c5ccoc5)OC(=O)[C@H]5O[C@]54[C@]2(C)[C@@H](O)C[C@@H]13
- Activity (P388 [9]): inactive

Compound: CC1(C)O[C@H]2CC(=O)OC[C@@]23C1=C(O)C(=O)[C@]1(C)[C@@H]3CC[C@@]2(C)[C@@H](c3ccoc3)OC(=O)[C@H]3O[C@]321
- Activity (P388 [3]): inactive

Compound: CC(=O)O[C@@H]1C[C@@H]2[C@](C)(C=C[C@@H](O)[C@]2(C)OC(C)=O)[C@H]2C(=O)[C@H](OC(C)=O)[C@@]3(C)C(c4ccoc4)C[C@H]4O[C@@]43[C@@]21C (single isomer, unassigned)
- Activity (P388 [15]): inactive
